The results in this text go back to US7012089B2, “[1,4]Diazocino[7,8,1-hi]indole derivatives as antipsychotic and antiobesity agents” (Wyeth, priority 2002, dated 2006).

pEC50, pKd, pKi: −log10 of the molar value. Counter-ions that a name gives are not always drawn. Like-named read-outs stand apart in the source and are kept apart here.

Data set [1] addresses T1, human 5-hydroxytryptamine-2C (h-5-HT2C) receptor (Homo sapiens, UniProt P28335).
T1 sequence (P28335 33-458): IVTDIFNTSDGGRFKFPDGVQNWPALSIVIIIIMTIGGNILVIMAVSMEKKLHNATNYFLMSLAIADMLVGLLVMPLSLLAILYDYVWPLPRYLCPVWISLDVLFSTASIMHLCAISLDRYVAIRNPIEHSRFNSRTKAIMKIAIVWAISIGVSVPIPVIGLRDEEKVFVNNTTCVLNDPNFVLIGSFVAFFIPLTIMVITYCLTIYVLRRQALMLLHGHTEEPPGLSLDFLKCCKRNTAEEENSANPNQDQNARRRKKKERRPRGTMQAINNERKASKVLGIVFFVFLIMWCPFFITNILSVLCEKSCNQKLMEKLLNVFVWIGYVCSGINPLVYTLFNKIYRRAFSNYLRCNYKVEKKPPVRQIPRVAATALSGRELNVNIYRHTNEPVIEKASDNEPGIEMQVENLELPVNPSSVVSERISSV
Put plainly: [125I]DOI binding to membranes of CHO cells expressing the h-5-HT2C receptor. The following applies: for Ki: 5-HT2c Affinity KI (nM).

The target in data set [2] is T2, human 5-HT2C receptor (Homo sapiens, UniProt P28335).
T2 sequence (P28335 33-458): T1 sequence (P28335 33-458)
The data set can be described thus: 5-HT2C receptor-stimulated calcium mobilization (FLIPR) in CHO cells. As to conditions: for Emax: CHO, read-out: 5-HT2C Function Emax (%). It is filed as cell-based. (In general: Calcium assays in cells follow changes in intracellular calcium, usually with a dye or a luminescent sensor.)

[3] abbreviates: displacement of [125I]DOI, CHO cell membranes.
The mark [4] stands for this setting: calcium mobilization, CHO cells stably expressing human 5-HT2C, read-out: 5-HT2C Function EC50.

`c1cc2c3c(c1)c1c(n3CCNCC2)CCC1` (as salt: fumarate) [Example 2, 2,3,4,5,10,11-Hexahydro-1H,9H-cyclopenta[b][1,4]diazocino[7,8,1-hi]indole]: the melting point – broadly, the temperature of the solid-liquid transition – was in the range of 180 to 183 °C.
The compound `CN1CCc2cccc3c2N(CC1)C1CCCC31` (stereo not shown) (as salt: fumarate) [Example 3, 3-Methyl-2,3,4,5,9,10,11,11a-octahydro-1H,8bH-cyclopenta[b][1,4]diazocino[7,8,1-hi]indole] registered a melting point of 159 to 161 °C.
On to `c1cc2c3c(c1)[C@H]1CCC[C@H]1N3CCNCC2` (single isomer, unassigned) [Example 46, (−)-(8bR*,11aR*)-2,3,4,5,9,10,11,11a-Octahydro-1H,8bH-cyclopenta[b][1,4]diazocino[7,8,1-hi]indole], for which the affinity in data set [1] (setting [3]), expressed as Ki, was 19 nM. In data set [2], the pEC50 (commonly −log10 of the EC50, conventionally taken in molar units) was 7.42 and the Emax – broadly, the size of the effect at its maximum, as opposed to the concentration needed – worked out at 70%.
Take `c1cc2c3c(c1)[C@H]1CCCC[C@H]1N3CCNCC2` (single isomer, unassigned) [Example 48, (−)-(8bR*,12aR*)-2,3,4,5,8b,9,10,11,12,12a-Decahydro-1H[1,4]diazocino[7,8,1-jk]carbazole]: the affinity in data set [1] (setting [3]), expressed as Ki, was 17 nM. In data set [2], the negative-log EC50 (pEC50) is 7.38 and the Emax came to 70%.
On to `c1cc2c3c(c1)c1c(n3CCNCC2)CCC1` [Example 2, 2,3,4,5,10,11-Hexahydro-1H,9H-cyclopenta[b][1,4]diazocino[7,8,1-hi]indole], for which the Ki (as a rule, the equilibrium dissociation constant of an inhibitor or competing ligand from its target) in data set [1] (setting [3]) turned out to be 38 nM. Besides, in data set [2], the negative-log EC50 (pEC50) is 7.70 and the Emax was 80%.
For `CN1CCc2cccc3c2N(CC1)C1CCCC31` (stereo not shown) [Example 3, 3-Methyl-2,3,4,5,9,10,11,11a-octahydro-1H,8bH-cyclopenta[b][1,4]diazocino[7,8,1-hi]indole], in that order: 41 nM, 7.43 and 50%.
For `c1cc2c3c(c1)C1CCCC1N3CCNCC2` (stereo not shown) [Example 4, 2,3,4,5,9,10,11,11a-Octahydro-1H,8bH-cyclopenta[b][1,4]diazocino[7,8,1-hi]indole], in that order: 31 nM, 7.74 and 90%.
Compound `c1cc2c3c(c1)c1c(n3CCNCC2)CCCC1` [Example 6, 2,3,4,5,9,10,11,12-Octahydro-1H-[1,4]diazocino[7,8,1-jk]carbazole] gave a Ki in data set [1] (setting [3]) of 4 nM. For the same compound, in data set [2], the pEC50 was 8.22 and the Emax was found to be 80%.
In data set [1] (setting [3]), `CN1CCc2cccc3c2N(CC1)C1CCCCC31` (stereo not shown) [Example 7, 3-Methyl-2,3,4,5,8b,9,10,11,12,12a-decahydro-1H-[1,4]diazocino[7,8,1-jk]carbazole] showed a Ki of 24 nM. Besides, in data set [2], the pEC50 is 7.13 and the Emax was determined as 60%.
In data set [1] (setting [3]), `c1cc2c3c(c1)C1CCCCC1N3CCNCC2` (stereo not shown) [Example 8, 2,3,4,5,8b,9,10,11,12,12a-Decahydro-1H-[1,4]diazocino[7,8,1-jk]carbazole] returned a Ki of 22 nM. Also, in data set [2], the pEC50 is 7.74 and the Emax is 80%.
Consider `CN1CCc2cccc3c4c(n(c23)CC1)CCCCC4` [Example 9, 3-Methyl-2,3,4,5,10,11,12,13-octahydro-1H,9H-cyclohepta[b][1,4]diazocino[7,8,1-hi]indole], for which affinity in data set [1] (setting [3]) was put at a Ki of 19 nM. Besides, the maximal response (Emax) in data set [2] stood at 25%. Also, in data set [2] (setting [4]), the pEC50 is 6.56.
Compound `c1cc2c3c(c1)c1c(n3CCNCC2)CCCCC1` [Example 10, 2,3,4,5,10,11,12,13-Octahydro-1H,9H-cyclohepta[b]1,4]diazocino[7,8,1-hi]indole] yielded a Ki in data set [1] (setting [3]) of 38 nM. Besides, in data set [2], the maximal response (Emax) is 90%. The pEC50 in data set [2] (setting [4]) is 6.81.
For `Clc1ccc2c3c1CCNCCN3C1CCCCCC21` (stereo not shown) [Example 22, 6-Chloro-2,3,4,5,9,10,11,12,13,13a-decahydro-1H,8bH-cyclohepta[b][1,4]diazocino[7,8,1-hi]indole], in that order: 50 nM, 60% and 6.49.
For the compound `CN1CCc2ccc(F)c3c4c(n(c23)CC1)CCCC4` [Example 25, 8-Fluoro-3-methyl-2,3,4,5,9,10,11,12-octahydro-1H-[1,4]diazocino[7,8,1-jk]carbazole], the affinity in data set [1] (setting [3]) corresponds to a Ki of 68 nM.
On to `CN1CCc2ccc(F)c3c2N(CC1)C1CCCC31` (stereo not shown) [Example 26, 8-Fluoro-3-methyl-2,3,4,5,9,10,11,11a-octahydro-1H,8bH-cyclopenta[b][1,4]diazocino[7,8,1-hi]indole], for which, in data set [1] (read-out: 5-HT2c Affinity KI), the pKi (commonly the negative decadic logarithm of the Ki, by convention in mol/L) was 6.75.
In turn, `CN1CCc2ccc(F)c3c2N(CC1)C1CCCCC31` (stereo not shown) [Example 27, 8-Fluoro-3-methyl-2,3,4,5,8b,9,10,11,12,12a-decahydro-1H-[1,4]diazocino[7,8,1-jk]carbazole] returned an inhibition constant Ki in data set [1] (setting [3]) of 13 nM. For the same compound, the maximal effect (Emax) in data set [2] was 70%. In data set [2] (setting [4]), the negative logarithm of the EC50 (pEC50) is 6.58.
The compound `Fc1ccc2c3c1c1c(n3CCNCC2)CCC1` [Example 28, 8-Fluoro-2,3,4,5,10,11-hexahydro-1H,9H-cyclopenta[b][1,4]diazocino[7,8,1-hi]indole] yielded a Ki in data set [1] (setting [3]) of 12 nM. Further, in data set [2], the pEC50 was 7.44 and the Emax was determined as 80%.
In data set [1] (setting [3]), `Fc1ccc2c3c1c1c(n3CCNCC2)CCCC1` [Example 29, 8-Fluoro-2,3,4,5,9,10,11,12-octahydro-1H-[1,4]diazocino[7,8,1-jk]carbazole] showed a Ki of 1 nM. In data set [2], the pEC50 was 8.10 and the Emax amounted to 90%.
`Fc1ccc2c3c1C1CCCC1N3CCNCC2` (stereo not shown) [Example 30, 8-Fluoro-2,3,4,5,9,10,11,11a-octahydro-1H,8bH-cyclopenta[b][1,4]diazocino[7,8,1-hi]indole] showed a Ki in data set [1] (setting [3]) of 16 nM. For the same compound, in data set [2], the pEC50 was 7.44 and the Emax turned out to be 90%.
`Fc1ccc2c3c1C1CCCCC1N3CCNCC2` (stereo not shown) [Example 31, 8-Fluoro-2,3,4,5,8b,9,10,11,12,12a-decahydro-1H[1,4]diazocino[7,8,1-jk]carbazole] registered a Ki in data set [1] (setting [3]) of 8 nM. Moreover, in data set [2], the pEC50 is 7.06 and the Emax worked out at 60%.
For `CN1CCc2ccc(Cl)c3c4c(n(c23)CC1)CCC4` [Example 34, 8-Chloro-3-methyl-2,3,4,5,10,11-hexahydro-1H,9H-cyclopenta[b][1,4]diazocino[7,8,1-hi]indole], in that order: 15 nM, 7.09 and 40%.
For `CN1CCc2ccc(Cl)c3c4c(n(c23)CC1)CCCC4` [Example 35, 8-Chloro-3-methyl-2,3,4,5,9,10,11,12-octahydro-1H-[1,4]diazocino[7,8,1-jk]carbazole], the Ki in data set [1] (setting [3]) turned out to be 11 nM. Also, the Emax in data set [2] is 50%. In data set [2] (setting [4]), the negative logarithm of the EC50 (pEC50) is 6.54.
For `CN1CCc2ccc(Cl)c3c2N(CC1)C1CCCC31` (stereo not shown) [Example 36, 8-Chloro-3-methyl-2,3,4,5,9,10,11,11a-octahydro-1H,8bH-cyclopenta[b][1,4]diazocino[7,8,1-hi]indole], in that order: 12 nM, 40% and 6.33.
In data set [1] (setting [3]), `CN1CCc2ccc(Cl)c3c2N(CC1)C1CCCCC31` (stereo not shown) [Example 37, 8-Chloro-3-methyl-2,3,4,5,8b,9,10,11,12,12a-decahydro-1H-[1,4]diazocino[7,8,1-jk]carbazole] yielded a Ki of 11.6 nM. In addition, the maximum response (Emax) in data set [2] is 70%. Further, in data set [2] (setting [4]), the pEC50 is 6.18.
In data set [1] (setting [3]), `Clc1ccc2c3c1c1c(n3CCNCC2)CCC1` [Example 38, 8-Chloro-2,3,4,5,10,11-hexahydro-1H,9H-cyclopenta[b][1,4]diazocino[7,8,1-hi]indole] displayed a Ki of 9.3 nM. Further, in data set [2], the negative-log EC50 (pEC50) is 7.06 and the Emax is 90%.
For `Clc1ccc2c3c1c1c(n3CCNCC2)CCCC1` [Example 39, 8-Chloro-2,3,4,5,9,10,11,12-octahydro-1H-[1,4]diazocino[7,8,1-jk]carbazole], in that order: 2 nM, 7.32 and 80%.
In data set [1] (setting [3]), `Clc1ccc2c3c1C1CCCC1N3CCNCC2` (stereo not shown) [Example 40, 8-Chloro-2,3,4,5,9,10,11,11a-octahydro-1H,8bH-cyclopenta[b][1,4]diazocino[7,8,1-hi]indole] had an inhibitory constant (Ki) of 20 nM. In data set [2], the pEC50 was 7.09 and the Emax was determined as 80%.
The compound `Clc1ccc2c3c1C1CCCCC1N3CCNCC2` (stereo not shown) [Example 41, 8-Chloro-2,3,4,5,8b,9,10,11,12,12a-decahydro-1H-[1,4]diazocino[7,8,1-jk]carbazole] yielded a Ki in data set [1] (setting [3]) of 7.5 nM. Further, in data set [2], the pEC50 was 7.04 and the Emax amounted to 90%.
For `CN1CCc2cccc3c2N(CC1)C1CCSCC31` (stereo not shown) [Example 44, 3-Methyl-2,3,4,5,9,10,11,12-octahydro-1H,9H-[1,4]diazocino[7,8,1-hi]thiopyrano[4,3-b]indole], in data set [1] (read-out: 5-HT2c Affinity KI), the pKi is 5.76.
`CSc1ccc2c(c1)C(N1CCN(C)CC1)Cc1ccccc1S2` (stereo not shown) [Methiothepin, reference compound]: the pKi in data set [1] (reference compounds, displacement of [125I]DOI, CHO cell membranes, read-out: Ki (95% confidence interval)) was 8.34.
On to `COc1cc(CC(C)N)c(OC)cc1I` (stereo not shown) [[^125I] DOI, reference compound], for which the pKd (as a rule, the Kd on a negative log10 scale, so that one unit is a factor of ten) in data set [1] (saturation binding with increasing concentrations of [125I]DOI, read-out: dissociation constant, KD) was 9.40.
